# In patent US20150209315A1 (Cumberland Pharmaceuticals, priority 2009, published 2015):
# System: post-operative adult patients
# Assay: Example 1: patient self-assessment of pain, VAS at rest
# Type: in vivo, human
# Procedure: Pain was measured by the patient's self-assessment using a Visual Analog Scale (VAS) from 0-10 with 0 being no pain and 10 being intense pain. This was measured both at rest and with movement. […] […] To account for the missing pain assessments, two missing value approaches as described in the statistical analysis plan were used to impute values. To determine the difference in overall pain at differing time-points, the area under the VAS pain curve during the first 24 hours, between 6 and 24 hours and between 12 and 24 hours were analyzed.
smiles,measurement,setting,value
"CC(C)Cc1ccc(C(C)C(=O)O)cc1 (stereo not shown) [Ibuprofen, 2-(4-isobutylphenyl) propionic acid]",VAS Score measured at Rest (median),"400 mg, EEP, 1-Hour",7.0
same,"VAS Score measured at Rest, % Reduction vs Placebo","400 mg, EEP, 1-Hour",0.0%
same,VAS Score measured at Rest (median),"400 mg, EEP, 2-Hour",6.1
same,"VAS Score measured at Rest, % Reduction vs Placebo","400 mg, EEP, 2-Hour",−3.4%
same,VAS Score measured at Rest (median),"400 mg, EEP, 3-Hour",5.0
same,"VAS Score measured at Rest, % Reduction vs Placebo","400 mg, EEP, 3-Hour",0.0%
same,VAS Score measured at Rest (median),"400 mg, EEP, 6-Hour",4.0
same,"VAS Score measured at Rest, % Reduction vs Placebo","400 mg, EEP, 6-Hour",0.0%
same,VAS Score measured at Rest (median),"400 mg, EEP, 9-Hour",3.0
same,VAS Score measured at Rest (median),"400 mg, EEP, 12-Hour",3.0
same,"VAS Score measured at Rest, % Reduction vs Placebo","400 mg, EEP, 12-Hour",0.0%
same,VAS Score measured at Rest (median),"400 mg, EEP, 15-Hour",2.0
same,"VAS Score measured at Rest, % Reduction vs Placebo","400 mg, EEP, 15-Hour",33.3%
same,VAS Score measured at Rest (median),"400 mg, EEP, 18-Hour",2.9
same,"VAS Score measured at Rest, % Reduction vs Placebo","400 mg, EEP, 18-Hour",3.3%
same,VAS Score measured at Rest (median),"400 mg, EEP, 21-Hour",2.9
same,"VAS Score measured at Rest, % Reduction vs Placebo","400 mg, EEP, 21-Hour",3.3%
same,VAS Score measured at Rest (median),"400 mg, EEP, 24-Hour",3.0
same,"VAS Score measured at Rest, % Reduction vs Placebo","400 mg, EEP, 24-Hour",0.0%
same,VAS Score measured at Rest (median),"400 mg, EEP, 27-Hour",3.0
same,"VAS Score measured at Rest, % Reduction vs Placebo","400 mg, EEP, 27-Hour",3.2%
same,VAS Score measured at Rest (median),"400 mg, EEP, 30-Hour",2.5
same,"VAS Score measured at Rest, % Reduction vs Placebo","400 mg, EEP, 30-Hour",10.7%
same,VAS Score measured at Rest (median),"400 mg, EEP, 33-Hour",2.7
same,"VAS Score measured at Rest, % Reduction vs Placebo","400 mg, EEP, 33-Hour",15.6%
same,VAS Score measured at Rest (median),"400 mg, EEP, 36-Hour",2.4
same,"VAS Score measured at Rest, % Reduction vs Placebo","400 mg, EEP, 36-Hour",7.7%
same,VAS Score measured at Rest (median),"400 mg, EEP, 39-Hour",2.1
same,"VAS Score measured at Rest, % Reduction vs Placebo","400 mg, EEP, 39-Hour",−16.7%
same,VAS Score measured at Rest (median),"400 mg, EEP, 42-Hour",2.1
same,"VAS Score measured at Rest, % Reduction vs Placebo","400 mg, EEP, 42-Hour",−5.0%
same,VAS Score measured at Rest (median),"400 mg, EEP, 45-Hour",2.4
same,"VAS Score measured at Rest, % Reduction vs Placebo","400 mg, EEP, 45-Hour",−14.3%
same,VAS Score measured at Rest (median),"400 mg, EEP, 48-Hour",1.6
same,"VAS Score measured at Rest, % Reduction vs Placebo","400 mg, EEP, 48-Hour",−6.7%
same,VAS Score measured at Rest (median),"400 mg, ITT, 1-Hour",7.0
same,"VAS Score measured at Rest, % Reduction vs Placebo","400 mg, ITT, 1-Hour",0.0%
same,VAS Score measured at Rest (median),"400 mg, ITT, 2-Hour",6.3
same,"VAS Score measured at Rest, % Reduction vs Placebo","400 mg, ITT, 2-Hour",−3.3%
same,VAS Score measured at Rest (median),"400 mg, ITT, 3-Hour",5.1
same,"VAS Score measured at Rest, % Reduction vs Placebo","400 mg, ITT, 3-Hour",−2.0%
same,VAS Score measured at Rest (median),"400 mg, ITT, 6-Hour",4.3
same,"VAS Score measured at Rest, % Reduction vs Placebo","400 mg, ITT, 6-Hour",−7.5%
same,VAS Score measured at Rest (median),"400 mg, ITT, 9-Hour",3.5
same,"VAS Score measured at Rest, % Reduction vs Placebo","400 mg, ITT, 9-Hour",12.5%
same,VAS Score measured at Rest (median),"400 mg, ITT, 12-Hour",3.1
same,"VAS Score measured at Rest, % Reduction vs Placebo","400 mg, ITT, 12-Hour",−3.3%
same,VAS Score measured at Rest (median),"400 mg, ITT, 15-Hour",2.6
same,"VAS Score measured at Rest, % Reduction vs Placebo","400 mg, ITT, 15-Hour",21.2%
same,VAS Score measured at Rest (median),"400 mg, ITT, 18-Hour",2.9
same,"VAS Score measured at Rest, % Reduction vs Placebo","400 mg, ITT, 18-Hour",3.3%
same,VAS Score measured at Rest (median),"400 mg, ITT, 21-Hour",2.8
same,"VAS Score measured at Rest, % Reduction vs Placebo","400 mg, ITT, 21-Hour",20.0%
same,VAS Score measured at Rest (median),"400 mg, ITT, 24-Hour",3.0
same,"VAS Score measured at Rest, % Reduction vs Placebo","400 mg, ITT, 24-Hour",0.0%
same,VAS Score measured at Rest (median),"400 mg, ITT, 27-Hour",3.1
same,"VAS Score measured at Rest, % Reduction vs Placebo","400 mg, ITT, 27-Hour",−3.3%
same,VAS Score measured at Rest (median),"400 mg, ITT, 30-Hour",2.4
same,"VAS Score measured at Rest, % Reduction vs Placebo","400 mg, ITT, 30-Hour",11.1%
same,VAS Score measured at Rest (median),"400 mg, ITT, 33-Hour",2.7
same,"VAS Score measured at Rest, % Reduction vs Placebo","400 mg, ITT, 33-Hour",15.6%
same,VAS Score measured at Rest (median),"400 mg, ITT, 36-Hour",2.3
same,"VAS Score measured at Rest, % Reduction vs Placebo","400 mg, ITT, 36-Hour",11.5%
same,VAS Score measured at Rest (median),"400 mg, ITT, 39-Hour",2.1
same,"VAS Score measured at Rest, % Reduction vs Placebo","400 mg, ITT, 39-Hour",−16.7%
same,VAS Score measured at Rest (median),"400 mg, ITT, 42-Hour",2.1
same,"VAS Score measured at Rest, % Reduction vs Placebo","400 mg, ITT, 42-Hour",−5.0%
same,VAS Score measured at Rest (median),"400 mg, ITT, 45-Hour",2.4
same,"VAS Score measured at Rest, % Reduction vs Placebo","400 mg, ITT, 45-Hour",−20.0%
same,VAS Score measured at Rest (median),"400 mg, ITT, 48-Hour",1.6
same,"VAS Score measured at Rest, % Reduction vs Placebo","400 mg, ITT, 48-Hour",−6.7%
same,VAS Score measured at Rest (median),"800 mg, EEP, 1-Hour",7.0
same,"VAS Score measured at Rest, % Reduction vs Placebo","800 mg, EEP, 1-Hour",0.0%
